# Publication PMC8358460, “Structural basis for the binding of the cancer targeting scorpion toxin, ClTx, to the vascular endothelia growth factor receptor neuropilin-1” (Current Research in Structural Biology, 2021)
# “Also recorded” adds a separate entry of the source.
# Experiments:
# human NRP1-b1 domain [1] = biological target: T1, human NRP1-b1 domain (Homo sapiens, UniProt O14786); test: ITC measurement of binding to NRP1-b1 domain; conditions: pH 5.5, 32 °C
# human NRP1-b1 domain [2] = biological target: T1, human NRP1-b1 domain; test: ITC competition: ClTx injected into NRP1-b1 in presence of EG00229; format: binding; conditions: 800 μM ClTx into 40 μM NRP1-b1 + 200 μM EG00229; 50 mM sodium citrate pH 5.5, 150 mM NaCl, 32 °C
# human NRP1-b1 domain [3] = biological target: T1, human NRP1-b1 domain; test: NMR competition titration of 15N-ClTx/NRP1-b1 with EG00229; format: binding; conditions: 413 μM EG00229 added to 55 μM 15N-ClTx + 125 μM NRP1-b1; 50 mM sodium citrate pH 5.5, 150 mM NaCl, 5% D2O, 298 K
# T1 sequence (O14786 273-427): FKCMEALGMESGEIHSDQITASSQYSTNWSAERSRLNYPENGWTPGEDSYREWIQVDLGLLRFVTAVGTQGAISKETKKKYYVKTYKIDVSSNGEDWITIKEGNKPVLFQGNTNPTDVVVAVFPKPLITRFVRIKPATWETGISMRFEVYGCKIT
smiles,measurement,setting,value
NC(N)=NCCC[C@H](NC(=O)c1sccc1NS(=O)(=O)c1cccc2nsnc12)C(=O)O [EG00229],"binding strength, in words",human NRP1-b1 domain [1],strong binding
same,inhibition of the ClTx–NRP1-b1 interaction by EG00229,human NRP1-b1 domain [2],fully inhibited; also recorded: completely blocks chlorotoxin from binding
same,recovery of backbone signal of 15N ClTx on addition of EG00229,human NRP1-b1 domain [3],completely recovered
